Measurements taken from patent US8273760B2, “Indolo[3,2-c]quinoline compounds” (Kaohsiung Medical University, priority 2008, dated 2012).

How the values were obtained:
PC-3 = assay: In vitro anticancer assay (NCI panel), PC-3; assay type: cell-based; conditions: Homo sapiens; PC-3, prostate cancer
Method: (§1) Selected compounds were evaluated in vitro against the NCI's full panel of 60 cancer cell lines derived from nine cancer cell types, including: leukemia (CCRF-CEM, HL-60 (TB), K-562, MOLT-4, RPMI-8226, and SR); non-small cell lung cancer (A549/ATCC, EKVX, HOP-62, HOP-92, NCI-H226, NCI-H23, NCI-H322M, and NCI-H522); colon cancer (COLO 205, HCC-2998, HCT-116, HCT-15, HT29, KM12, and SW-620); CNS cancer (SF-268, SF-295, SF-539, SNB-19, SNB-75, and U251); melanoma (LOX IMVI, MALME-3M, M14, SK-MEL-2, SK-MEL-28, SK-MEL-5, UACC-62, and UACC-257); ovarian cancer (IGROV1, OVCAR-3, OVCAR-4, OVCAR-5, OVCAR-8, and SK-OV-3); renal cancer (786-0, A498, ACHN, CAKI-1, RXF 393, SN12C, TK-10, and UO-31); prostate cancer (PC-3 and DU-145); and breast cancer (MCF7, MCF7/ADR-RES, MDA-MB-231/ATCC, HS 578T, MDA-MB-435, MDA-N, and T-47D). For each compound, dose-response curves for each cell line were measured with five different drug concentrations, and the concentration causing 50% cell growth inhibition (GI50) compared with the control was calculated. The mean GI50 values of each tested compound for all the 60 tumor cell lines were also calculated.

OVCAR-3 = assay: In vitro anticancer assay (NCI panel), OVCAR-3; assay type: cell-based; conditions: Homo sapiens; OVCAR-3, ovarian cancer
Method: as §1

OVCAR-5 = assay: In vitro anticancer assay (NCI panel), OVCAR-5; assay type: cell-based; conditions: Homo sapiens; OVCAR-5, ovarian cancer
Method: as §1

HT29 = assay: In vitro anticancer assay (NCI panel), HT29; assay type: cell-based; conditions: Homo sapiens, HT-29; HT29, colon cancer
Method: as §1

COLO 205 = assay: In vitro anticancer assay (NCI panel), COLO 205; assay type: cell-based; conditions: Homo sapiens; COLO 205, colon cancer
Method: as §1

SN12C = assay: In vitro anticancer assay (NCI panel), SN12C; assay type: cell-based; conditions: Homo sapiens, renal cancer
Method: as §1

K-562 = assay: In vitro anticancer assay (NCI panel), K-562; assay type: cell-based; conditions: Homo sapiens, K562; K-562, leukemia
Method: as §1

MCF7 = assay: In vitro anticancer assay (NCI panel), MCF7; assay type: cell-based; conditions: Homo sapiens; MCF7, breast cancer
Method: as §1

786-0 = assay: In vitro anticancer assay (NCI panel), 786-0; assay type: cell-based; conditions: Homo sapiens; 786-0, renal cancer
Method: as §1

OVCAR-8 = assay: In vitro anticancer assay (NCI panel), OVCAR-8; assay type: cell-based; conditions: Homo sapiens; OVCAR-8, ovarian cancer
Method: as §1

DU-145 = assay: In vitro anticancer assay (NCI panel), DU-145; assay type: cell-based; conditions: Homo sapiens; DU-145, prostate cancer
Method: as §1

SF-268 = assay: In vitro anticancer assay (NCI panel), SF-268; assay type: cell-based; conditions: Homo sapiens; SF-268, CNS cancer
Method: as §1

HL-60 (TB) = assay: In vitro anticancer assay (NCI 60 cell line panel), HL-60 (TB); assay type: cell-based; conditions: Homo sapiens, leukemia
Method: as §1

SF-295 = assay: In vitro anticancer assay (NCI panel), SF-295; assay type: cell-based; conditions: Homo sapiens; SF-295, CNS cancer
Method: as §1

A549/ATCC = assay: In vitro anticancer assay (NCI panel), A549/ATCC; assay type: cell-based; conditions: Homo sapiens, non-small cell lung cancer
Method: as §1

MDA-MB-231/ATCC = assay: In vitro anticancer assay (NCI panel), MDA-MB-231/ATCC; assay type: cell-based; conditions: Homo sapiens, breast cancer
Method: as §1

SR = assay: In vitro anticancer assay (NCI panel), SR; assay type: cell-based; conditions: Homo sapiens, leukemia
Method: as §1

telomerase = telomerase (Homo sapiens, UniProt O14746); assay: Telomeric Repeat Amplification Protocol (TRAP) assay, cell-free; conditions: 0.5 μg total cell extract from H1299 human lung cancer cells, FIG. 1
LOX IMVI = assay: In vitro anticancer assay (NCI panel), LOX IMVI; assay type: cell-based; conditions: Homo sapiens, melanoma
Method: as §1

HCT-116 = assay: In vitro anticancer assay (NCI panel), HCT-116; assay type: cell-based; conditions: Homo sapiens; HCT-116, colon cancer
Method: as §1

NCI-H460 = assay: In vitro anticancer assay (NCI panel), NCI-H460; assay type: cell-based; conditions: Homo sapiens; NCI-H460, non-small cell lung cancer
Method: as §1

UACC-62 = assay: In vitro anticancer assay (NCI panel), UACC-62; assay type: cell-based; conditions: Homo sapiens; UACC-62, melanoma
Method: as §1

ACHN = assay: In vitro anticancer assay (NCI panel), ACHN; assay type: cell-based; conditions: Homo sapiens, renal cancer
Method: as §1

SK-MEL-2 = assay: In vitro anticancer assay (NCI panel), SK-MEL-2; assay type: cell-based; conditions: Homo sapiens; SK-MEL-2, melanoma
Method: as §1

SNB-19 = assay: In vitro anticancer assay (NCI panel), SNB-19; assay type: cell-based; conditions: Homo sapiens; SNB-19, CNS cancer
Method: as §1

HOP-62 = assay: In vitro anticancer assay (NCI panel), HOP-62; assay type: cell-based; conditions: Homo sapiens; HOP-62, non-small cell lung cancer
Method: as §1

MDA-MB-435 = assay: In vitro anticancer assay (NCI panel), MDA-MB-435; assay type: cell-based; conditions: Homo sapiens; MDA-MB-435, breast cancer
Method: as §1

[1] = tested on: NCI's full panel of 60 cancer cell lines; assay: In vitro anticancer assay, all cell lines of the NCI panel; assay type: cell-based, human; conditions: Homo sapiens, mean values of over all cell lines tested; read-out: MG MID (mean GI50)
Method: as §1

[2] = tested on: human leukemia HL-60 cells; conditions: previous studies, read-out: GI50 (50% cell growth inhibition); cited from earlier work

Sequence of telomerase (O14746 whole entry): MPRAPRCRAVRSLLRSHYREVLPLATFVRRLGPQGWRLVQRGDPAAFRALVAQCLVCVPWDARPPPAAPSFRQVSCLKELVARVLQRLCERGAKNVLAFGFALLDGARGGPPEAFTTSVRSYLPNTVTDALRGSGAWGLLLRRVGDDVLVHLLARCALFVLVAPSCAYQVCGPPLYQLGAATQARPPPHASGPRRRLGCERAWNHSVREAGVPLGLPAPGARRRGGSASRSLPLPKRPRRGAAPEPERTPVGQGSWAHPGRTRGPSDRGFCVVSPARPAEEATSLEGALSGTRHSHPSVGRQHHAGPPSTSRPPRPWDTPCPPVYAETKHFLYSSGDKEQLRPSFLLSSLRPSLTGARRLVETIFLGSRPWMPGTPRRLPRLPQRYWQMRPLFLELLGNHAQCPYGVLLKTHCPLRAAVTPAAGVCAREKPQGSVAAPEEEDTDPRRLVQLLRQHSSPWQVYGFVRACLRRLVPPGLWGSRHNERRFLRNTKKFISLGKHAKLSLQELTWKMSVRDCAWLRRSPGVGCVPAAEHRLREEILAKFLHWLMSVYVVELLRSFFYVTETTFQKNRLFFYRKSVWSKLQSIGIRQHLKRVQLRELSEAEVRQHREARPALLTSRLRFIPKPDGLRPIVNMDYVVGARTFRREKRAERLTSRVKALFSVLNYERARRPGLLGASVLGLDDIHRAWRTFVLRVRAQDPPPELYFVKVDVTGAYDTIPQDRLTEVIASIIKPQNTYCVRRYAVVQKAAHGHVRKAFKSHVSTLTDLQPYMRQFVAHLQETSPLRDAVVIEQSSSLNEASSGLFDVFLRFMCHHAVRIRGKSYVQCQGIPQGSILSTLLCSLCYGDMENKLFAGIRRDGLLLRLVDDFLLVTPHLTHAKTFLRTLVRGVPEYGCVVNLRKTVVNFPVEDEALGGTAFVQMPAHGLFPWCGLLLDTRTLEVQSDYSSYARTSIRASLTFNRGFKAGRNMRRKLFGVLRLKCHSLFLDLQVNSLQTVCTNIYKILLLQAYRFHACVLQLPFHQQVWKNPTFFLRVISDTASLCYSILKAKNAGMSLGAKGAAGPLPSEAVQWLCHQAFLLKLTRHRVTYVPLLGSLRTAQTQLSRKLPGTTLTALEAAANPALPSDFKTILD

**Q.** Which GI50 (PC-3) does the source give for Cl.c1ccc2c(c1)nc(NCCCNCCCNc1nc3ccccc3c3[nH]c4ccccc4c13)c1c3ccccc3[nH]c21 [Compound 8a, N,N-bis-[3-(11H-indolo[3,2-c]quinolin-6-yl)aminopropyl]amine hydrochloride] here?
**A.** 360 nM

**Q.** What about the GI50 (OVCAR-3) of the same molecule?
**A.** 520 nM

**Q.** And the GI50 (OVCAR-5)?
**A.** 220 nM

**Q.** And the GI50 (HT29)?
**A.** 50 nM

**Q.** And the GI50 (COLO 205)?
**A.** 180 nM

**Q.** What about the GI50 (SN12C) of the same molecule?
**A.** 30 nM

**Q.** What about the GI50 (K-562) of the same molecule?
**A.** 40 nM

**Q.** And the GI50 (MCF7)?
**A.** 10 nM

**Q.** And the GI50 (786-0)?
**A.** 70 nM

**Q.** What about the GI50 (OVCAR-8) of the same molecule?
**A.** 40 nM

**Q.** And the GI50 (DU-145)?
**A.** 130 nM

**Q.** What about the GI50 (SF-268) of the same molecule?
**A.** 30 nM

**Q.** What about the GI50 (HL-60 (TB)) of the same molecule?
**A.** 40 nM

**Q.** What about the GI50 (SF-295) of the same molecule?
**A.** 100 nM

**Q.** What about the GI50 (A549/ATCC) of the same molecule?
**A.** 60 nM

**Q.** And the GI50 (MDA-MB-231/ATCC)?
**A.** 180 nM

**Q.** What about the GI50 (SR) of the same molecule?
**A.** 30 nM

**Q.** And the “concentration that completely inhibited telomerase activity” value (telomerase)?
**A.** approximately 0.02 nM

**Q.** And the GI50 (LOX IMVI)?
**A.** 70 nM

**Q.** And the GI50 (HCT-116)?
**A.** 170 nM

**Q.** What about the GI50 (NCI-H460) of the same molecule?
**A.** 40 nM

**Q.** And the melting point?
**A.** 107 to 108 °C

**Q.** What about the GI50 (UACC-62) of the same molecule?
**A.** 220 nM

**Q.** What about the GI50 (ACHN) of the same molecule?
**A.** 60 nM

**Q.** What about the GI50 (SK-MEL-2) of the same molecule?
**A.** 550 nM

**Q.** And the GI50 (SNB-19)?
**A.** 70 nM

**Q.** And the GI50 (HOP-62)?
**A.** 50 nM

**Q.** And the GI50 (MDA-MB-435)?
**A.** 850 nM

**Q.** And the GI50 [1]?
**A.** 150 nM

**Q.** For Cl.OCCNCCNc1nc2ccccc2c2[nH]c3ccccc3c12 [Compound 9, 2-[2-(11H-Indolo[3,2-c]quinolin-6-ylamino)ethylamino]ethanol hydrochloride], which GI50 (PC-3) is on record?
**A.** 880 nM

**Q.** What about the GI50 (OVCAR-3) of the same molecule?
**A.** 1310 nM

**Q.** What about the GI50 (OVCAR-5) of the same molecule?
**A.** 580 nM

**Q.** And the GI50 (HT29)?
**A.** 560 nM

**Q.** And the GI50 (COLO 205)?
**A.** 1760 nM

**Q.** What about the GI50 (SN12C) of the same molecule?
**A.** 1260 nM

**Q.** And the GI50 (K-562)?
**A.** 1550 nM

**Q.** What about the GI50 (MCF7) of the same molecule?
**A.** 1240 nM

**Q.** What about the GI50 (786-0) of the same molecule?
**A.** 340 nM

**Q.** What about the GI50 (OVCAR-8) of the same molecule?
**A.** 810 nM

**Q.** And the GI50 (DU-145)?
**A.** 740 nM

**Q.** What about the GI50 (SF-268) of the same molecule?
**A.** 1360 nM

**Q.** And the GI50 (HL-60 (TB))?
**A.** 1310 nM

**Q.** What about the GI50 (SF-295) of the same molecule?
**A.** 1410 nM

**Q.** And the GI50 (A549/ATCC)?
**A.** 980 nM

**Q.** What about the GI50 (MDA-MB-231/ATCC) of the same molecule?
**A.** 1240 nM

**Q.** What about the GI50 (SR) of the same molecule?
**A.** 900 nM

**Q.** And the GI50 (LOX IMVI)?
**A.** 440 nM

**Q.** What about the GI50 (HCT-116) of the same molecule?
**A.** 190 nM

**Q.** What about the GI50 (NCI-H460) of the same molecule?
**A.** 1460 nM

**Q.** What about the melting point of the same molecule?
**A.** 276 °C

**Q.** What about the GI50 (UACC-62) of the same molecule?
**A.** 2000 nM

**Q.** And the GI50 (ACHN)?
**A.** 380 nM

**Q.** And the GI50 (SK-MEL-2)?
**A.** 2250 nM

**Q.** What about the GI50 (SNB-19) of the same molecule?
**A.** 2100 nM

**Q.** And the GI50 (HOP-62)?
**A.** 370 nM

**Q.** What about the GI50 (MDA-MB-435) of the same molecule?
**A.** 1460 nM

**Q.** What about the GI50 [1] of the same molecule?
**A.** 1070 nM

**Q.** With Cl.Nc1nc2ccccc2c2[nH]c3ccccc3c12 [Compound 7e, 11H-Indolo[3,2-c]quinolin-6-ylamine hydrochloride] as the molecule, how does the GI50 (OVCAR-3) read?
**A.** 1420 nM

**Q.** And the GI50 (OVCAR-5)?
**A.** 1840 nM

**Q.** And the GI50 (HT29)?
**A.** 510 nM

**Q.** What about the GI50 (COLO 205) of the same molecule?
**A.** 1070 nM

**Q.** What about the GI50 (SN12C) of the same molecule?
**A.** 1240 nM

**Q.** And the GI50 (K-562)?
**A.** 620 nM

**Q.** What about the GI50 (MCF7) of the same molecule?
**A.** 1190 nM

**Q.** And the GI50 (786-0)?
**A.** 1120 nM

**Q.** What about the GI50 (OVCAR-8) of the same molecule?
**A.** 980 nM

**Q.** What about the GI50 (DU-145) of the same molecule?
**A.** 1940 nM

**Q.** What about the GI50 (SF-268) of the same molecule?
**A.** 1970 nM

**Q.** And the GI50 (HL-60 (TB))?
**A.** 1980 nM

**Q.** And the GI50 (SF-295)?
**A.** 1030 nM

**Q.** What about the GI50 (A549/ATCC) of the same molecule?
**A.** 1090 nM

**Q.** And the GI50 (MDA-MB-231/ATCC)?
**A.** 1220 nM

**Q.** And the GI50 (SR)?
**A.** 640 nM

**Q.** What about the GI50 (LOX IMVI) of the same molecule?
**A.** 1050 nM

**Q.** What about the GI50 (HCT-116) of the same molecule?
**A.** 500 nM

**Q.** And the GI50 (NCI-H460)?
**A.** 410 nM

**Q.** And the melting point?
**A.** 377 to 378 °C

**Q.** And the GI50 (UACC-62)?
**A.** 13500 nM

**Q.** What about the GI50 (ACHN) of the same molecule?
**A.** 480 nM

**Q.** And the GI50 (SK-MEL-2)?
**A.** 1540 nM

**Q.** What about the GI50 (SNB-19) of the same molecule?
**A.** 1100 nM

**Q.** And the GI50 (HOP-62)?
**A.** 1130 nM

**Q.** What about the GI50 (MDA-MB-435) of the same molecule?
**A.** 940 nM

**Q.** And the GI50 [1]?
**A.** 1290 nM

**Q.** For CN(C)CCNc1nc2ccccc2c2[nH]c3ccccc3c12 [IQDMA, N′-(11H-indolo[3,2-c]quinolin-6-yl)-N,N-dimethyl-ethane-1,2-diamine], which GI50 [2] is on record?
**A.** 1980 nM
